{
  "source": "ChEMBL document CHEMBL5352488",
  "about": "“Development of novel S-N3-DABO derivatives as potent non-nucleoside reverse transcriptase inhibitors with improved potency and selectivity” (Eur J Med Chem, 2023)",
  "key": {"[1]": {"test_system": "Human immunodeficiency virus 1", "assay": "Anti-HIV activity against wild type HIV-1 IIIB infected in human MT4 cells assessed as inhibition of virus-induced cytopathic effect by MTT assay", "format": "functional, organism-based", "details": "Human immunodeficiency virus 1, IIIB"}, "[2]": {"assay": "Cytotoxicity against human MT4 cells assessed as reduction in cell viability by MTT assay", "format": "toxicity, cell-based"}, "[3]": {"assay": "Selectivity index, ratio of CC50 for cytotoxicity against human MT4 cells assessed as reduction in cell viability by MTT assay to EC50 for anti-HIV activity against wild type HIV-1 IIIB infected in human MT4 cells assessed as inhibition of virus-induced cytopathic effect by MTT assay", "format": "toxicity, cell-based", "details": "read-out: Ratio CC50/EC50"}, "[4]": {"test_system": "Human immunodeficiency virus 1", "assay": "Anti-HIV activity against drug resistant HIV-1 harboring L100I mutant infected in human MT4 cells assessed as inhibition of virus-induced cytopathic effect by MTT assay", "format": "functional, organism-based", "details": "Human immunodeficiency virus 1, MT4"}, "[5]": {"test_system": "Human immunodeficiency virus 1", "assay": "Anti-HIV activity against drug resistant HIV-1 harboring K103N mutant infected in human MT4 cells assessed as inhibition of virus-induced cytopathic effect by MTT assay", "format": "functional, organism-based", "details": "Human immunodeficiency virus 1, MT4"}, "[6]": {"test_system": "Human immunodeficiency virus 1", "assay": "Anti-HIV activity against drug resistant HIV-1 harboring Y181C mutant infected in human MT4 cells assessed as inhibition of virus-induced cytopathic effect by MTT assay", "format": "functional, organism-based", "details": "Human immunodeficiency virus 1, MT4"}, "[7]": {"test_system": "Human immunodeficiency virus 1", "assay": "Anti-HIV activity against drug resistant HIV-1 harboring Y188L mutant infected in human MT4 cells assessed as inhibition of virus-induced cytopathic effect by MTT assay", "format": "functional, organism-based", "details": "Human immunodeficiency virus 1, MT4"}, "[8]": {"test_system": "Human immunodeficiency virus 1", "assay": "Anti-HIV activity against drug resistant HIV-1 harboring E138K mutant infected in human MT4 cells assessed as inhibition of virus-induced cytopathic effect by MTT assay", "format": "functional, organism-based", "details": "Human immunodeficiency virus 1, MT4"}, "[9]": {"test_system": "Human immunodeficiency virus 1", "assay": "Anti-HIV activity against drug resistant HIV-1 harboring F227L/V106A mutant infected in human MT4 cells assessed as inhibition of virus-induced cytopathic effect by MTT assay", "format": "functional, organism-based", "details": "Human immunodeficiency virus 1, MT4"}, "[10]": {"target": "Human immunodeficiency virus type 1 reverse transcriptase (Human immunodeficiency virus 1, UniProt Q72547)", "assay": "Inhibition of wild type HIV-1 reverse transcriptase assessed as assessed as inhibition of biotin deoxyuridine triphosphate incorporation into […]"}, "Cytochrome P450 1A2": {"target": "T1, Cytochrome P450 1A2 (Homo sapiens, UniProt P05177)", "T1 sequence (P05177 whole entry)": "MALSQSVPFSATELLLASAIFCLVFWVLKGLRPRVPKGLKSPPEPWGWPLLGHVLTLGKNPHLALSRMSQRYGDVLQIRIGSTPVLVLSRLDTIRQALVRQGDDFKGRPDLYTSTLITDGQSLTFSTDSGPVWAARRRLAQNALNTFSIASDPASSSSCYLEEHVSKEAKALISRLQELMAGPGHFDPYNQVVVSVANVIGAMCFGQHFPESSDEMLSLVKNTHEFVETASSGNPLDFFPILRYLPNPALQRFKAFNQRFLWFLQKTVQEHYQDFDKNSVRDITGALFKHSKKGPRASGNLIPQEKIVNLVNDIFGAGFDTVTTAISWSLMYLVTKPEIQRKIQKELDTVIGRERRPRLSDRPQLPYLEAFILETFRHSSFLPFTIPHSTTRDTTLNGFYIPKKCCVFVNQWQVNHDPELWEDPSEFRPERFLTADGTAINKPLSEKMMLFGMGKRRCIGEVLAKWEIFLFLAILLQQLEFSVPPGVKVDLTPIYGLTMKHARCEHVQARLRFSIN", "assay": "Inhibition of CYP1A2 in human liver microsomes using phenacetin as substrate measured after 10 mins in presence of NADPH", "format": "ADME, Microsome"}, "Cytochrome P450 2C9": {"target": "Cytochrome P450 2C9 (Homo sapiens, UniProt P11712)", "sequence (P11712 whole entry)": "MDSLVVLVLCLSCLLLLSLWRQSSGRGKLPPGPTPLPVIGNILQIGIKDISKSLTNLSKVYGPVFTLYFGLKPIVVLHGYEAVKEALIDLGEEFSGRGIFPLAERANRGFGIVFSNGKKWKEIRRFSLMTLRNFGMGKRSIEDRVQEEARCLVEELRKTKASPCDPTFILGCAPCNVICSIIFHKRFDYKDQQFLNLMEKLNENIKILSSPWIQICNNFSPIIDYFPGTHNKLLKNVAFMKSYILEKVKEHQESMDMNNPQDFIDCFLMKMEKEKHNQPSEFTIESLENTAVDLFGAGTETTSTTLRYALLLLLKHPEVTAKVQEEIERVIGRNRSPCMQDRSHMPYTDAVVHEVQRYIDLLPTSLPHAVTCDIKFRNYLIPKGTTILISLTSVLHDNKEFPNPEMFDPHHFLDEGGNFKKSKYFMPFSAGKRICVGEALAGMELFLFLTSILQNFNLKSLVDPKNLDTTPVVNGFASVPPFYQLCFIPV", "assay": "Inhibition of CYP2C9 in human liver microsomes using tolbutamide as substrate measured after 10 mins in presence of NADPH", "format": "ADME, Microsome"}, "Cytochrome P450 2C19": {"target": "Cytochrome P450 2C19 (Homo sapiens, UniProt P33261)", "sequence (P33261 whole entry)": "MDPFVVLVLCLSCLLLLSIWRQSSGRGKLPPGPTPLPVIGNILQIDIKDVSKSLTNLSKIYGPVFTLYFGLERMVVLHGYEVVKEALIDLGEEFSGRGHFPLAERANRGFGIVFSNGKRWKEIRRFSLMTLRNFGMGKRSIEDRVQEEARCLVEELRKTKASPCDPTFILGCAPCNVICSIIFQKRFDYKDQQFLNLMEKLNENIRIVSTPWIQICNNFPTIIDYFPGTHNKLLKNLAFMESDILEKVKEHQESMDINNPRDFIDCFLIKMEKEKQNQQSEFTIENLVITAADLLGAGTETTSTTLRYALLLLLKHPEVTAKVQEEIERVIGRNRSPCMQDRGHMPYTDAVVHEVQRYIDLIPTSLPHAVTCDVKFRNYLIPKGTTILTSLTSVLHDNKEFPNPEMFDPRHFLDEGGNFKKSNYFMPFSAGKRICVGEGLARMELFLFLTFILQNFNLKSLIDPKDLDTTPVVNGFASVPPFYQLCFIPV", "assay": "Inhibition of CYP2C19 in human liver microsomes using mephenytoin as substrate measured after 10 mins in presence of NADPH", "format": "ADME, Microsome"}, "Cytochrome P450 2D6": {"target": "Cytochrome P450 2D6 (Homo sapiens, UniProt P10635)", "sequence (P10635 whole entry)": "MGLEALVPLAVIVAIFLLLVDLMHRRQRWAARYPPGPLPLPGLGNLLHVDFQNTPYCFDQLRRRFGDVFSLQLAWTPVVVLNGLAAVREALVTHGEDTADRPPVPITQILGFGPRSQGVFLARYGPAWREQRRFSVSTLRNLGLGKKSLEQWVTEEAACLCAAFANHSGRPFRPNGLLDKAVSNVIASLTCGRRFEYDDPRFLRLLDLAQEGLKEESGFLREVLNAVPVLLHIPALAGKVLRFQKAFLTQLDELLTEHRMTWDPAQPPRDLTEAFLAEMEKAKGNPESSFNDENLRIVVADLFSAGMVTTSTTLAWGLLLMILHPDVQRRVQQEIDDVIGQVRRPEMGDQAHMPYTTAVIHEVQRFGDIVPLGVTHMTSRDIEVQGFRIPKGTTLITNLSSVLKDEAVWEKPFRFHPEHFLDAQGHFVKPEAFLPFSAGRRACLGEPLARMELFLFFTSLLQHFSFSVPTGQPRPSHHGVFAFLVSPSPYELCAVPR", "assay": "Inhibition of CYP2D6 in human liver microsomes using dextromethorphan as substrate measured after 10 mins in presence of NADPH", "format": "ADME, Microsome"}, "Cytochrome P450 3A4 [11]": {"target": "T2, Cytochrome P450 3A4 (Homo sapiens, UniProt P08684)", "T2 sequence (P08684 whole entry)": "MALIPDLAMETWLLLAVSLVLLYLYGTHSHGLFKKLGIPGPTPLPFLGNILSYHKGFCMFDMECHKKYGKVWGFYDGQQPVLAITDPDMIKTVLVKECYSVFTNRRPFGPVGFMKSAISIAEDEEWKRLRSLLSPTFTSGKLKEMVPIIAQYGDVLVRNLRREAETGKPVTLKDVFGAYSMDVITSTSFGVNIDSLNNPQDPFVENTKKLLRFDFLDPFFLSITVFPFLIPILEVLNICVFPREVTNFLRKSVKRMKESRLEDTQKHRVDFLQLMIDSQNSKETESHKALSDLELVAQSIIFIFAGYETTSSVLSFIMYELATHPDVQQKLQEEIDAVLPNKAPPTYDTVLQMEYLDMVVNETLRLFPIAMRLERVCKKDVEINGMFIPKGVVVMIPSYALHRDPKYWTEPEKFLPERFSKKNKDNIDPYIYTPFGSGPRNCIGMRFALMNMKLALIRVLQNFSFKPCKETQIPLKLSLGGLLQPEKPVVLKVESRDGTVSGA", "assay": "Inhibition of CYP3A4T in human liver microsomes using testosterone as substrate measured after 10 mins in presence of NADPH", "format": "ADME, Microsome"}, "Cytochrome P450 3A4 [12]": {"target": "T2, Cytochrome P450 3A4", "assay": "Inhibition of CYP3A4M in human liver microsomes using midazolam as substrate measured after 10 mins in presence of NADPH", "format": "ADME, Microsome"}, "hERG (KCNH2)": {"target": "hERG (KCNH2) (Homo sapiens, UniProt Q12809)", "sequence (Q12809 whole entry)": "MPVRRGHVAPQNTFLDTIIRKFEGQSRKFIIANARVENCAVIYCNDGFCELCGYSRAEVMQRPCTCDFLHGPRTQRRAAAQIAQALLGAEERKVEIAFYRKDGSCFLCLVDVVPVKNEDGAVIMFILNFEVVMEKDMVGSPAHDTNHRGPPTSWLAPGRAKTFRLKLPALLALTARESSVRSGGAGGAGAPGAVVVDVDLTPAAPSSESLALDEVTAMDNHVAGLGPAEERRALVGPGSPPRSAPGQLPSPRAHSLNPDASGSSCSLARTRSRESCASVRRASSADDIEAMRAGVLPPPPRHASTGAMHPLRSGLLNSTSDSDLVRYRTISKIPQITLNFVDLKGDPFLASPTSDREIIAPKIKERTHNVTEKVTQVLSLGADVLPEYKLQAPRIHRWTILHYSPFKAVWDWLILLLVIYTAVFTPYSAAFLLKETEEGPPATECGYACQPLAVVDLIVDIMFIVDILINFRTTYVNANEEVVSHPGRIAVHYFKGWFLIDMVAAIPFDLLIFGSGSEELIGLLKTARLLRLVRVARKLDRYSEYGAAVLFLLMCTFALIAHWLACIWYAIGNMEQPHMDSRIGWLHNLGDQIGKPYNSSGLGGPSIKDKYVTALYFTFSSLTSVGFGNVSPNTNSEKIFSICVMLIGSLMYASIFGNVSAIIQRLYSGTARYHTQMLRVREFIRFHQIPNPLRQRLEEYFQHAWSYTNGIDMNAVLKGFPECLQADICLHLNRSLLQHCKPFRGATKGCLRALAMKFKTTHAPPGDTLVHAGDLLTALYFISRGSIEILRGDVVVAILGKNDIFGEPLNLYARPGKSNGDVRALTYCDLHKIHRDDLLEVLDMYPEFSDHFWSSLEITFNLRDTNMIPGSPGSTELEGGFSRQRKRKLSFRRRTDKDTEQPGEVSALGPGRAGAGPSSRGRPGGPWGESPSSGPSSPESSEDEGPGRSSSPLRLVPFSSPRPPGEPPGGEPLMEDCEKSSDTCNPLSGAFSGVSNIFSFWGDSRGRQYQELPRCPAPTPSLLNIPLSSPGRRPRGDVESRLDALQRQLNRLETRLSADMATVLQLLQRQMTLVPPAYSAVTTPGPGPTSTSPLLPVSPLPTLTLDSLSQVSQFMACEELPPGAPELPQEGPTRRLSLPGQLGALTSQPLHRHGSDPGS", "assay": "Inhibition of human ERG expressed in CHO cells at 40 uM by automated patch-clamp electrophysiological assay", "format": "toxicity, cell-based", "details": "CHO cells that express hERG"}, "[13]": {"assay": "Acute toxicity in mouse assessed as change in body weight at 1000 mg/kg, po", "format": "organism-based", "details": "in vivo"}, "[14]": {"assay": "Acute toxicity in mouse assessed as histopathological changes in heart at 1000 mg/kg, po by Hematoxylin and eosin staining based microscopy", "format": "organism-based", "details": "in vivo"}, "[15]": {"assay": "Acute toxicity in mouse assessed as histopathological changes in liver at 1000 mg/kg, po by Hematoxylin and eosin staining based microscopy", "format": "organism-based", "details": "in vivo"}, "[16]": {"assay": "Acute toxicity in mouse assessed as histopathological changes in spleen at 1000 mg/kg, po by Hematoxylin and eosin staining based microscopy", "format": "organism-based", "details": "in vivo"}, "[17]": {"assay": "Acute toxicity in mouse assessed as histopathological changes in lung at 1000 mg/kg, po by Hematoxylin and eosin staining based microscopy", "format": "organism-based", "details": "in vivo"}, "[18]": {"assay": "Acute toxicity in mouse assessed as histopathological changes in kidney at 1000 mg/kg, po by Hematoxylin and eosin staining based microscopy", "format": "organism-based", "details": "in vivo"}, "[19]": {"assay": "Acute toxicity in mouse assessed as histopathological changes in brain at 1000 mg/kg, po by Hematoxylin and eosin staining based microscopy", "format": "organism-based", "details": "in vivo"}},
  "data": [
    {"molecule": "Cc1cc(C)cc(C(N=[N+]=[N-])c2nc(SC(C)C)[nH]c(=O)c2C)c1", "note": "(centres undefined)", "values": [
      {"measurement": "EC50", "setting": "[1]", "value": 0.053, "unit": "µM"},
      {"measurement": "CC50", "setting": "[2]", "value": "> 364", "unit": "µM"},
      {"measurement": "selectivity ratio", "setting": "[3]", "value": "> 6820"},
      {"measurement": "EC50", "setting": "[4]", "value": 1.05, "unit": "µM"},
      {"measurement": "EC50", "setting": "[5]", "value": 2.51, "unit": "µM"},
      {"measurement": "EC50", "setting": "[6]", "value": 2.28, "unit": "µM"},
      {"measurement": "EC50", "setting": "[7]", "value": 203, "unit": "µM"},
      {"measurement": "EC50", "setting": "[8]", "value": 0.26, "unit": "µM"},
      {"measurement": "EC50", "setting": "[9]", "value": 7.88, "unit": "µM"},
      {"measurement": "IC50", "setting": "[10]", "value": 0.08, "unit": "µM"},
      {"measurement": "IC50", "setting": "Cytochrome P450 1A2", "value": "> 50", "unit": "µM"},
      {"measurement": "IC50", "setting": "Cytochrome P450 2C9", "value": 35.8, "unit": "µM"},
      {"measurement": "IC50", "setting": "Cytochrome P450 2C19", "value": 27.1, "unit": "µM"},
      {"measurement": "IC50", "setting": "Cytochrome P450 2D6", "value": "> 50", "unit": "µM"},
      {"measurement": "IC50", "setting": "Cytochrome P450 3A4 [11]", "value": "> 50", "unit": "µM"},
      {"measurement": "IC50", "setting": "Cytochrome P450 3A4 [12]", "value": "> 50", "unit": "µM"},
      {"measurement": "inhibition at 40 µM", "setting": "hERG (KCNH2)", "value": 41.4, "unit": "%"},
      {"measurement": "Activity", "setting": "[13]", "value": "Non-Toxic"},
      {"measurement": "Activity", "setting": "[14]", "value": "Non-Toxic"},
      {"measurement": "Activity", "setting": "[15]", "value": "Non-Toxic"},
      {"measurement": "Activity", "setting": "[16]", "value": "Non-Toxic"},
      {"measurement": "Activity", "setting": "[17]", "value": "Non-Toxic"},
      {"measurement": "Activity", "setting": "[18]", "value": "Non-Toxic"},
      {"measurement": "Activity", "setting": "[19]", "value": "Non-Toxic"}
    ]}
  ]
}
